Where only a bound is given, the exact number is not on record here.

One test deals with Utrophin A promoter linked to a luciferase reporter gene. The test is described as follows: Luciferase reporter assay (murine H2K cells), H2K/mdx/Utro A reporter cell line. In kind it is cell-based. To be noted: 48 h; test compound concentration 10 μM; mdx mouse H2K Utrophin A reporter cells; read-out: Activity (luciferase level relative to control). The method, then:
Luciferase Reporter Assay (Murine H2K Cells)
The cell line used for the screen is an immortalized mdx mouse H2K cell line that has been stably transfected with a plasmid containing ≈5 kb fragment of the Utrophin A promoter including the first untranslated exon linked to a luciferase reporter gene.
Under conditions of low temperature and interferon containing media, the cells remain as myoblasts. These are plated into 96 well plates and cultured in the presence of compound for three days. The level of luciferase is then determined by cell lysis and reading of the light output from the expressed luciferase gene utilising a plate luminometer.
Luciferase Assay for 96 Well Plates
The H2K/mdx/Utro A reporter cell line cells were plated out into 96 well plates (Falcon 353296, white opaque) at a density of approximately 5000 cells/well in 190 μl normal growth medium. The plates were then incubated at 33° C. in the presence of 10% CO2 for 24 hrs.
Compounds were dosed by adding 10 μl of diluted compound to each well giving a final concentration of 10 μM (where a different final concentration was required, the amount of compound solution added was amended accordingly). The plates were then incubated for a further 48 hrs. Cells were then lysed in situ following the manufacture's protocols (Promega Steady-Glo Luciferase Assay System(E2520). Then counted for 10 seconds using a plate luminometer (Victor1420).
Compounds for screening were stored at −20° C. as 10 mM stocks in 100% DMSO until required.
Biological activity as assessed using the luciferase reporter assay in murine H2K cells, and the results are shown in Table 1, which also lists the concentration of the test compound solution in μM.
On the technique in general: Reporter assays use an easily measured gene product as a stand-in for the process of interest.
For `Cc1cccc(CNC(=O)Nc2nn(Cc3cc4c(cc3Cl)OCO4)c3ccccc23)c1` [Compound 32, 1-(1-((6-chlorobenzo[d][1,3]dioxol-5-yl)methyl)-1H-indazol-3-yl)-3-(3-methylbenzyl)urea], the activity at 10 µM was less than 200%.
With `O=C(Nc1nn(Cc2ccc(CN3C(=O)CCC3=O)cc2)c2ccccc12)c1cnc2ccccc2n1` [Compound 33, N-(1-(4-((2,5-dioxopyrrolidin-1-yl)methyl)benzyl)-1H-indazol-3-yl)quinoxaline-2-carboxamide], the activity at 10 µM was less than 200%.
With `COc1ccc(NC(=O)c2nn(Cc3ccc(S(C)(=O)=O)cc3)c3ccccc23)cc1` [Compound 34, N-(4-methoxyphenyl)-1-(4-(methylsulfonyl)benzyl)-1H-indazole-3-carboxamide], the activity at 10 µM lay within 301 to 400%.
For `CS(=O)(=O)c1ccc(Cn2nc(C(=O)Nc3ccc4c(c3)OC(F)(F)O4)c3ccccc32)cc1` [Compound 35, N-(2,2-difluorobenzo[d][1,3]dioxol-5-yl)-1-(4-(methylsulfonyl)benzyl)-1H-indazole-3-carboxamide], the activity at 10 µM is less than 200%.
`CON(C)S(=O)(=O)c1ccc(Cn2nc(C(=O)Nc3nccs3)c3ccccc32)cc1` [Compound 36, 1-(4-(N-methoxy-N-methylsulfamoyl)benzyl)-N-(thiazol-2-yl)-1H-indazole-3-carboxamide]: the activity at 10 µM was less than 200%.
On the same count and under the same terms, in the case of `COc1ccc(CCNC(=O)Nc2nn(Cc3cc4c(cc3Cl)OCO4)c3ccccc23)cc1` [Compound 37, 1-(1-((6-chlorobenzo[d][1,3]dioxol-5-yl)methyl)-1H-indazol-3-yl)-3-(4-methoxyphenethyl)urea] it was less than 200%; in that of `NC(=O)c1ccc(NC(=O)c2nn(Cc3ccc(C(=O)N4CCOCC4)cc3)c3ccccc23)cc1` [Compound 38, N-(4-carbamoylphenyl)-1-(4-(morpholine-4-carbonyl)benzyl)-1H-indazole-3-carboxamide], 201 to 300%.
As to `CCN(CC)S(=O)(=O)c1ccc(Cn2nc(C(=O)Nc3ccccn3)c3ccccc32)cc1` [Compound 39, 1-(4-(N,N-diethylsulfamoyl)benzyl)-N-(pyridin-2-yl)-1H-indazole-3-carboxamide], the activity at 10 µM is less than 200%.
As for `CCN(CC)S(=O)(=O)c1ccc(Cn2nc(C(=O)Nc3ccc4c(c3)C(=O)N(C)C4=O)c3ccccc32)cc1` [Compound 41, 1-(4-(N,N-diethylsulfamoyl)benzyl)-N-(2-methyl-1,3-dioxoisoindolin-5-yl)-1H-indazole-3-carboxamide], the activity at 10 µM is less than 200%.
Regarding `CC(C)(C)c1ccc(Cn2nc(C(=O)Nc3ccc4c(c3)OCO4)c3ccccc32)cc1` [Compound 42, N-(benzo[d][1,3]dioxol-5-yl)-1-(4-tert-butylbenzyl)-1H-indazole-3-carboxamide], the activity at 10 µM is greater than 401%.
On to `O=C(Nc1ccc(N2CCCCC2)cc1)c1nn(CCOc2ccc(F)cc2)c2ccccc12` [Compound 43, 1-(2-(4-fluorophenoxy)ethyl)-N-(4-(piperidin-1-yl)phenyl)-1H-indazole-3-carboxamide], for which the activity at 10 µM was less than 200%.
For `COc1cccc(OCc2ccc(Cn3nc(NC(=O)NCc4ccccc4OC)c4ccccc43)cc2)c1` [Compound 44, 1-(2-methoxybenzyl)-3-(1-(4-((3-methoxyphenoxy)methyl)benzyl)-1H-indazol-3-yl)urea], the activity at 10 µM was less than 200%.
`O=C(Nc1ccc2c(c1)OCO2)c1nn(CCCOc2ccccc2)c2ccccc12` [Compound 45, N-(benzo[d][1,3]dioxol-5-yl)-1-(3-phenoxypropyl)-1H-indazole-3-carboxamide]: the activity at 10 µM is greater than 401%.
As to `O=C(Nc1ccc2c(c1)OCO2)c1nn(CCOc2ccc(F)cc2)c2ccccc12` [Compound 46, N-(benzo[d][1,3]dioxol-5-yl)-1-(2-(4-fluorophenoxy)ethyl)-1H-indazole-3-carboxamide], the activity at 10 µM was less than 200%.
`O=C(NCc1ccccc1F)Nc1nn(Cc2cc3c(cc2Cl)OCO3)c2ccccc12` [Compound 47, 1-(1-((6-chlorobenzo[d][1,3]dioxol-5-yl)methyl)-1H-indazol-3-yl)-3-(2-fluorobenzyl)urea]: the activity at 10 µM is less than 200%.
For `CC(C)(C)c1ccc(Cn2nc(C(=O)Nc3ccc4c(c3)OC(F)(F)O4)c3ccccc32)cc1` [Compound 48, 1-(4-tert-butylbenzyl)-N-(2,2-difluorobenzo[d][1,3]dioxol-5-yl)-1H-indazole-3-carboxamide], the activity at 10 µM is less than 200%.
Regarding `CON(C)S(=O)(=O)c1ccc(Cn2nc(C(=O)Nc3ccccn3)c3ccccc32)cc1` [Compound 49, 1-(4-(N-methoxy-N-methylsulfamoyl)benzyl)-N-(pyridin-2-yl)-1H-indazole-3-carboxamide], the activity at 10 µM was less than 200%.
As for `O=C(Nc1ccc2c(c1)OCO2)c1nn(Cc2ccc(-c3ccccc3)cc2)c2ccccc12` [Compound 50, N-(benzo[d][1,3]dioxol-5-yl)-1-(biphenyl-4-ylmethyl)-1H-indazole-3-carboxamide], the activity at 10 µM was less than 200%.
With `Cc1cccc(NC(=O)Nc2nn(Cc3ccc(COc4ccc5c(c4)OCO5)cc3)c3ccc(C(F)(F)F)cc23)c1` [Compound 51, 1-(1-(4-((benzo[d][1,3]dioxol-5-yloxy)methyl)benzyl)-5-(trifluoromethyl)-1H-indazol-3-yl)-3-m-tolylurea], the activity at 10 µM is less than 200%.
For `COc1cc(NC(=O)Nc2nn(Cc3cc4c(cc3Cl)OCO4)c3ccccc23)cc(OC)c1` [Compound 52, 1-(1-((6-chlorobenzo[d][1,3]dioxol-5-yl)methyl)-1H-indazol-3-yl)-3-(3,5-dimethoxyphenyl)urea], the activity at 10 µM was less than 200%.
Consider `O=C(Nc1ccc2c(c1)CCC2)Nc1nn(Cc2ccc(C(F)(F)F)cc2)c2ccccc12` [Compound 53, 1-(2,3-dihydro-1H-inden-5-yl)-3-(1-(4-(trifluoromethyl)benzyl)-1H-indazol-3-yl)urea], for which the activity at 10 µM is less than 200%.
On to `COc1cccc(OCc2ccc(Cn3nc(NC(=O)Nc4ccc(OC)c(OC)c4)c4ccccc43)cc2)c1` [Compound 54, 1-(3,4-dimethoxyphenyl)-3-(1-(4-((3-methoxyphenoxy)methyl)benzyl)-1H-indazol-3-yl)urea], for which the activity at 10 µM was less than 200%.
Same read-out and setting: the figure for `O=C(NCc1ccco1)Nc1nn(Cc2cc3c(cc2Cl)OCO3)c2ccccc12` [Compound 55, 1-(1-((6-chlorobenzo[d][1,3]dioxol-5-yl)methyl)-1H-indazol-3-yl)-3-(furan-2-ylmethyl)urea] is less than 200%; for `COc1ccc(NC(=O)c2nn(CCOc3ccccc3)c3ccccc23)cc1` [Compound 56, N-(4-methoxyphenyl)-1-(2-phenoxyethyl)-1H-indazole-3-carboxamide] it is less than 200%.
The same measure, in the same setting: in the case of `Cc1ccc(NC(=O)Nc2nn(Cc3ccc(COc4ccc5c(c4)OCO5)cc3)c3ccc(C(F)(F)F)cc23)cc1` [Compound 57, 1-(1-(4-((benzo[d][1,3]dioxol-5-yloxy)methyl)benzyl)-5-(trifluoromethyl)-1H-indazol-3-yl)-3-p-tolylurea] it was less than 200%.

The same test, now with this note: 48 h; test compound concentration 30 μM; mdx mouse H2K Utrophin A reporter cells; read-out: Activity (luciferase level relative to control).
Consider `O=C(Nc1ccccc1OC(F)(F)F)Nc1nn(Cc2ccc(C(F)(F)F)cc2)c2ccccc12` [Compound 40, 1-(2-(trifluoromethoxy)phenyl)-3-(1-(4-(trifluoromethyl)benzyl)-1H-indazol-3-yl)urea], for which the activity at 30 µM is less than 200%.

The values are drawn from patent US20100305120A1, “COMPOUNDS FOR TREATING MUSCULAR DYSTROPHY” (BIOMARIN IGA LIMITED, priority 2008, published 2010).
